Laboratory results from ChEMBL document CHEMBL3877255, “Structure-activity relationship (SAR) study and design strategies of nitrogen-containing heterocyclic moieties for their anticancer activities” (Eur J Med Chem, 2017).
≈ marks a conversion by molar mass, not a printed value. Values belong to the compound of their own block, whether it stands above or below them.

Columns and labels:
[1] = Cytotoxicity against human A549 cells by sulforhodamine-B assay; type: functional, cell-based
[2] = Cytotoxicity against human NCI-H157 cells by sulforhodamine-B assay; type: functional, cell-based
[3] = Cytotoxicity against human MCF7 cells by MTT assay; type: functional, cell-based
[4] = Cytotoxicity against human PC3 cells by MTT assay; type: functional, cell-based; conditions: PC-3
[5] = Cytotoxicity against human DU145 cells by MTT assay; type: functional, cell-based; conditions: DU-145
[6] = Cytotoxicity against human MDA-MB-231 cells by MTT assay; type: functional, cell-based
[7] = Cytotoxicity against human HeLa cells measured after 3 days by MTT assay; type: functional; conditions: 72 h
[8] = Cytotoxicity against human MCF7 cells measured after 3 days by MTT assay; type: functional; conditions: MCF7, 72 h
[9] = Cytotoxicity against human A549 cells measured after 3 days by MTT assay; type: functional; conditions: A549, 72 h
[10] = Cytotoxicity against human HepG2 cells after 72 hrs by sulforhodamine-B assay; type: functional, cell-based; conditions: HepG2, 72 h
[11] = Cytotoxicity against human Calu1 cells by sulforhodamine-B assay; type: functional, cell-based; conditions: Calu-1
[12] = biological target: cGMP-inhibited 3',5'-cyclic phosphodiesterase 3A (Homo sapiens, UniProt Q14432); test: Inhibition of human PDE3A using fluorescein-labelled cAMP as substrate measured after 60 mins by IMAP TR-FRET assay
cGMP-inhibited 3',5'-cyclic phosphodiesterase 3A, sequence (Q14432 whole entry): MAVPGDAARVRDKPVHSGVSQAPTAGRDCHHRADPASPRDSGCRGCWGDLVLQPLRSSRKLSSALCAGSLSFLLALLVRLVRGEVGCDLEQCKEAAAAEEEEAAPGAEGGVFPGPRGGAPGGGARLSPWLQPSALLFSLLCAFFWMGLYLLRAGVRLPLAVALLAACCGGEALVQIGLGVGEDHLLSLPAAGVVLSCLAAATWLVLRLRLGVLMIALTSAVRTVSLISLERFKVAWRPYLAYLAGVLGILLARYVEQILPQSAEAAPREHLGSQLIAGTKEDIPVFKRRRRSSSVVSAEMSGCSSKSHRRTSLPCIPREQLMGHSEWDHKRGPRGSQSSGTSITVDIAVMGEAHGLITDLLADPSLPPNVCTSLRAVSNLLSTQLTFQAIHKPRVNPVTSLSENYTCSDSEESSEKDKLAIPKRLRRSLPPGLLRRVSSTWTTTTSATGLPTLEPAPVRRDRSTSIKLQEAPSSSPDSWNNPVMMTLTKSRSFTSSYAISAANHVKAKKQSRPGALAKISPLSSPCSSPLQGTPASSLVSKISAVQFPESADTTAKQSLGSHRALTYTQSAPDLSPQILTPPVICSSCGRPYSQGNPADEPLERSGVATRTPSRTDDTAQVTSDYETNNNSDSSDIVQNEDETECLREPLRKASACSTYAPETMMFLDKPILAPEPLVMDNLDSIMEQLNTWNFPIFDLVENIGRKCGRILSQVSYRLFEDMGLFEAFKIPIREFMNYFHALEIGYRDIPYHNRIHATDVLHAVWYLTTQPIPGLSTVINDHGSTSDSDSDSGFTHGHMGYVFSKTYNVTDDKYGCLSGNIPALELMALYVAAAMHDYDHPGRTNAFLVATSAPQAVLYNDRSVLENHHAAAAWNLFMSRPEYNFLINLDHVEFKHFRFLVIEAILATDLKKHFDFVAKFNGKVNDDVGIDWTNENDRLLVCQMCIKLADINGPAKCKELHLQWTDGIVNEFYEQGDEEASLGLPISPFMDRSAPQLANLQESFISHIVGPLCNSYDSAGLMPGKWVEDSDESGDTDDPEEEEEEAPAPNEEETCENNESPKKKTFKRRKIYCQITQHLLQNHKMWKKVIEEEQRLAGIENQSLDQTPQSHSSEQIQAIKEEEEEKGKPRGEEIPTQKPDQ

[13] = Cytotoxicity against human HeLa cells measured after 24 hrs by MTT assay; type: functional, cell-based
[14] = Cytotoxicity against human MCF7 cells measured after 24 hrs by MTT assay; type: functional, cell-based; conditions: MCF7, 24 h

Compound: Cc1onc(-c2ccc([N+](=O)[O-])cc2)c1C(=O)/C=C/c1ccccc1Br
IC50 [1]: 11.1 µM | IC50 [2]: 7.27 µM

Compound: Clc1cccc(Cl)c1C1=NO[C@@]2(CCCCO2)[C@H]1Br
IC50 [3]: 43 to 56 µM | IC50 [4]: 43 to 56 µM | IC50 [5]: 43 to 56 µM | IC50 [6]: 43 to 56 µM

Compound: CC(C)NC(=O)c1cccc2c(Cc3ccc(C(=O)O)cc3)c3ccccc3nc12
CC50 [7]: 47.5 µg/mL (≈ 119 µM)

Compound: Cc1ccc2nc3ccccc3c(Nc3cccc(Cl)c3)c2c1
CC50 [8]: 212 µg/mL (≈ 667 µM) | CC50 [9]: 188 µg/mL (≈ 588 µM)

Compound: Clc1ccc(C2=NO[C@@]3(CCCCO3)[C@H]2Br)cc1
IC50 [3]: 43 to 56 µM | IC50 [4]: 43 to 56 µM | IC50 [5]: 43 to 56 µM | IC50 [6]: 43 to 56 µM

Compound: COC(=O)c1ccccc1-n1c(N)c(C(N)=O)c(-c2ccc(N(C)C)cc2)cc1=O
IC50 [10]: 1.34 µM

Compound: CC(C)NC(=O)c1cccc2c(Cc3cccc(Cl)c3)c3ccccc3nc12
CC50 [9]: 100 µg/mL (≈ 257 µM)

Compound: Cc1onc(-c2ccc([N+](=O)[O-])cc2)c1C(=O)/C=C/c1ccccc1Cl
IC50 [11]: 2.07 µM | IC50 [2]: 1.35 µM

IC50 [12]: 0.00376 µM
Compound: CCSc1ncc(-c2cc(-c3ccc(Br)cc3)[nH]c(=N)c2C#N)n1Cc1ccccc1
IC50 [13]: 34.3 µM | IC50 [14]: 50.2 µM

Compound: COC(=O)c1ccccc1-n1c(N)c(C#N)c(-c2ccc(N(C)C)cc2)cc1=O
IC50 [10]: 0.02 µM
